Key:
Bcl-2-like protein 1 = Bcl-2-like protein 1 (Homo sapiens, UniProt Q07817); test: Time-resolved fluorescence energy transfer (TR-FRET) with BCL2L1
[1] = test system: Proto-oncogene tyrosine-protein kinase receptor Ret (Homo sapiens), P07949 [V804M]; conditions: Compound concentration 1000.0 nM
[2] = molecular target: Epithelial discoidin domain-containing receptor 1 (Homo sapiens) (UniProt Q08345); conditions: Compound concentration 1000.0 nM
[3] = molecular target: Tyrosine-protein kinase Fyn (Homo sapiens) (UniProt P06241); conditions: Compound concentration 1000.0 nM
Chain of Tyrosine-protein kinase Fyn (Homo sapiens) (P06241 2-537 limits assumed): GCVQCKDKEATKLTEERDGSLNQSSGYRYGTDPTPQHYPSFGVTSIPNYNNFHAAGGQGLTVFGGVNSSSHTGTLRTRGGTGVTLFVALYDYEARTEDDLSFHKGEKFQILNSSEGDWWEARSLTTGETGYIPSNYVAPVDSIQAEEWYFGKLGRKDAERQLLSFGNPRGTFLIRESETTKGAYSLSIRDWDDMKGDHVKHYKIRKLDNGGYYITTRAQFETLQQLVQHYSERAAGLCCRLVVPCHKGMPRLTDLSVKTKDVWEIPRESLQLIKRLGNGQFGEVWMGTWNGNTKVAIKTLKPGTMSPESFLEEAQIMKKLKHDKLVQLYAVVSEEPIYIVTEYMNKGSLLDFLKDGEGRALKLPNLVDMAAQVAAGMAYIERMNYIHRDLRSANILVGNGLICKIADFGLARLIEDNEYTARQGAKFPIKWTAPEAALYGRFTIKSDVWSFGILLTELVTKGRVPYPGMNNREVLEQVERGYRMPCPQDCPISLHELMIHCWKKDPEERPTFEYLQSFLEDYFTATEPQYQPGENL

[4] = molecular target: Serine/threonine-protein kinase ULK2 (Homo sapiens) (UniProt Q8IYT8); conditions: Compound concentration 1000.0 nM
[5] = molecular target: 3-phosphoinositide-dependent protein kinase 1 (Homo sapiens) (UniProt O15530); conditions: Compound concentration 1000.0 nM
[6] = molecular target: Histamine H4 receptor (Homo sapiens) (UniProt Q9H3N8); conditions: Compound concentration 10.0 uM
[7] = molecular target: Serine/threonine-protein kinase PknB (Mycobacterium tuberculosis) (UniProt P9WI81); conditions: Compound concentration 1000.0 nM
[8] = test system: Tyrosine-protein kinase ABL1 (Homo sapiens), P00519 [F317L]; conditions: Compound concentration 1000.0 nM
Chain of Tyrosine-protein kinase ABL1 (Homo sapiens), P00519 [F317L] (P00519 whole entry F317L): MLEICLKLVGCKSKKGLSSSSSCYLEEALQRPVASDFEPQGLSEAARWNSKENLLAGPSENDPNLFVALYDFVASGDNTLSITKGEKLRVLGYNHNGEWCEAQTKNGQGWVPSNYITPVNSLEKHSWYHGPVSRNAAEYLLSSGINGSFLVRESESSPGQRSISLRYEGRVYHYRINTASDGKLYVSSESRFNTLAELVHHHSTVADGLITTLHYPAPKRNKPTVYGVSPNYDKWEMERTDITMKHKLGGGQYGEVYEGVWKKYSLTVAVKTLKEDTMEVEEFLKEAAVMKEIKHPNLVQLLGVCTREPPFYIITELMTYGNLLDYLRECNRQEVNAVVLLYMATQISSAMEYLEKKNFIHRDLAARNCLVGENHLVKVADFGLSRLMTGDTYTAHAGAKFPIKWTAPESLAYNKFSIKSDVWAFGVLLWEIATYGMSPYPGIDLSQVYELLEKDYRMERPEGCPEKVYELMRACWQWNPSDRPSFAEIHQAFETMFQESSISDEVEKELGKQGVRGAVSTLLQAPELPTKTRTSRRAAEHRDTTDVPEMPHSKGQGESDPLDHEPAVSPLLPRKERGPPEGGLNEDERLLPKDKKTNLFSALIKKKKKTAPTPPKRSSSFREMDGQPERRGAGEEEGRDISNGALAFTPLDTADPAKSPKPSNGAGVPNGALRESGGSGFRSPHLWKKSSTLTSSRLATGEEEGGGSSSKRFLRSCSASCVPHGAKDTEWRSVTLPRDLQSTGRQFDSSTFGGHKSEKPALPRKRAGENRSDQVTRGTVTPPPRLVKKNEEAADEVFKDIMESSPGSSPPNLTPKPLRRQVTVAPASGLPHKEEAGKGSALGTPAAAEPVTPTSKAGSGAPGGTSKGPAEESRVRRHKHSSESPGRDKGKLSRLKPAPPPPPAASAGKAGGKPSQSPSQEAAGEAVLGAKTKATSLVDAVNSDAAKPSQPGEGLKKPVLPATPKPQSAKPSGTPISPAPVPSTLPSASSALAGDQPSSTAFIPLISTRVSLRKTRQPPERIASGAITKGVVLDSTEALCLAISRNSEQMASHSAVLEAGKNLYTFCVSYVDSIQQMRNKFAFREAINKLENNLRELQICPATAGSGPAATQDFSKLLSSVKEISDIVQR

[9] = molecular target: Adenosine receptor A1 (Homo sapiens) (UniProt P30542); test: A1 (h) Eurofins-Cerep binding assay; parameters: ligand concentration 1 nM; conditions: filed as antagonist, Compound concentration 10.0 uM
Chain of Adenosine receptor A1 (Homo sapiens) (P30542 whole entry): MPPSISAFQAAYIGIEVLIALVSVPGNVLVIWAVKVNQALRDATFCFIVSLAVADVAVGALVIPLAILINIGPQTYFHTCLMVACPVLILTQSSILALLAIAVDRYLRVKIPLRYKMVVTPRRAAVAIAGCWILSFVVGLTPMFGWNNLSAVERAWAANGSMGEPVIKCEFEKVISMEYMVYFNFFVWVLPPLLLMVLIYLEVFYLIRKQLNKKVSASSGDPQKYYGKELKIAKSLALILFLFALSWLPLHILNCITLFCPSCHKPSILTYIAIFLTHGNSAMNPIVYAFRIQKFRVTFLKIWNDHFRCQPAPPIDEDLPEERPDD

[10] = molecular target: Bone morphogenetic protein receptor type-1A (Homo sapiens) (UniProt P36894); conditions: Compound concentration 1000.0 nM
[11] = molecular target: Hepatocyte growth factor receptor (Homo sapiens) (UniProt P08581); conditions: Compound concentration 1000.0 nM
[12] = molecular target: 5-hydroxytryptamine receptor 2A (Homo sapiens) (UniProt P28223); test: 5-HT2A (h) Eurofins-Cerep binding assay; parameters: ligand concentration 0.5 nM; conditions: filed as antagonist, Compound concentration 10.0 uM
[13] = molecular target: Protein kinase C eta type (Homo sapiens) (UniProt P24723); conditions: Compound concentration 1000.0 nM
[14] = molecular target: Sodium-dependent serotonin transporter (Homo sapiens) (UniProt P31645); test: 5-HT transporter (h) Eurofins-Cerep binding assay; parameters: ligand concentration 2 nM; conditions: filed as antagonist, Compound concentration 10.0 uM
[15] = molecular target: 1-phosphatidylinositol 3-phosphate 5-kinase (Homo sapiens) (UniProt Q9Y2I7); conditions: Compound concentration 1000.0 nM
[16] = molecular target: Mitogen-activated protein kinase 11 (Homo sapiens) (UniProt Q15759); conditions: Compound concentration 1000.0 nM
[17] = molecular target: Phosphorylase b kinase gamma catalytic chain, skeletal muscle/heart isoform (Homo sapiens) (UniProt Q16816); conditions: Compound concentration 1000.0 nM
[18] = molecular target: SRSF protein kinase 1 (Homo sapiens) (UniProt Q96SB4); conditions: Compound concentration 1000.0 nM
[19] = molecular target: T1, Muscarinic acetylcholine receptor M4 (Homo sapiens) (UniProt P08173); test: M4 (h) Eurofins-Cerep binding assay; parameters: ligand concentration 0.2 nM; conditions: filed as antagonist, Compound concentration 10.0 uM
T1 sequence (whole entry): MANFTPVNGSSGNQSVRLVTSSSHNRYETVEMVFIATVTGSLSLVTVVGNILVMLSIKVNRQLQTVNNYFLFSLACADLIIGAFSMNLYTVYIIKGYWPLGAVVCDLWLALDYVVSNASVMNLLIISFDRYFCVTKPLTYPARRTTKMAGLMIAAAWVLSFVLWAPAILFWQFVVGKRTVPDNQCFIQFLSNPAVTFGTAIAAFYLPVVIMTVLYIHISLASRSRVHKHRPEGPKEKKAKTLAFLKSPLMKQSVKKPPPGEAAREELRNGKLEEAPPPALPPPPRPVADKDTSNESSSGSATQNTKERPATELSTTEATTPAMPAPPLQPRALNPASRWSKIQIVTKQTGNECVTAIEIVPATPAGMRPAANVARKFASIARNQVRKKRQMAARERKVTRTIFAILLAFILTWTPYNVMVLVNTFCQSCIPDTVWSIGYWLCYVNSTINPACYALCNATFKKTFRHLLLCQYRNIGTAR

[20] = molecular target: Serine/threonine-protein kinase MRCK beta (Homo sapiens) (UniProt Q9Y5S2); conditions: Compound concentration 1000.0 nM
[21] = molecular target: Phosphorylase b kinase regulatory subunit alpha, liver isoform (Homo sapiens) (UniProt P46019); conditions: Compound concentration 1000.0 nM
[22] = molecular target: Calcium/calmodulin-dependent protein kinase type 1G (Homo sapiens) (UniProt Q96NX5); conditions: Compound concentration 1000.0 nM
[23] = molecular target: cAMP-dependent protein kinase catalytic subunit PRKX (Homo sapiens) (UniProt P51817); conditions: Compound concentration 1000.0 nM
[24] = molecular target: Tyrosine-protein kinase ABL1 (Homo sapiens) (UniProt P00519); conditions: Compound concentration 1000.0 nM
Chain of Tyrosine-protein kinase ABL1 (Homo sapiens) (P00519 whole entry): as the sequence (P00519 whole entry F317L) above, with L317F counted along it

[25] = molecular target: Melatonin receptor type 1B (Homo sapiens) (UniProt P49286); test: MT2 (ML1B) (h) Eurofins-Cerep binding assay; parameters: ligand concentration 0.05 nM; conditions: filed as agonist, Compound concentration 10.0 uM
Chain of Melatonin receptor type 1B (Homo sapiens) (P49286 whole entry): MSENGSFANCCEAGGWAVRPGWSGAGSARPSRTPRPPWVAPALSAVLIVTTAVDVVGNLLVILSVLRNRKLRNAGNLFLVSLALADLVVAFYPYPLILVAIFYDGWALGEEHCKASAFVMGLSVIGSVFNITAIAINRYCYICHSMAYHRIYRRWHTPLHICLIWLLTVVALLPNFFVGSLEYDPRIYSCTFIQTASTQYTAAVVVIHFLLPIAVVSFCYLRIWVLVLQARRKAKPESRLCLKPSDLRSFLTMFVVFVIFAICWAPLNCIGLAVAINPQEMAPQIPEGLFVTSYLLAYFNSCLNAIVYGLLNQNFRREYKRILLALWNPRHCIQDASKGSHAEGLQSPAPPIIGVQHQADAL

[26] = molecular target: Mitogen-activated protein kinase 10 (Homo sapiens) (UniProt P53779); conditions: Compound concentration 1000.0 nM
Chain of Mitogen-activated protein kinase 10 (Homo sapiens) (P53779 whole entry): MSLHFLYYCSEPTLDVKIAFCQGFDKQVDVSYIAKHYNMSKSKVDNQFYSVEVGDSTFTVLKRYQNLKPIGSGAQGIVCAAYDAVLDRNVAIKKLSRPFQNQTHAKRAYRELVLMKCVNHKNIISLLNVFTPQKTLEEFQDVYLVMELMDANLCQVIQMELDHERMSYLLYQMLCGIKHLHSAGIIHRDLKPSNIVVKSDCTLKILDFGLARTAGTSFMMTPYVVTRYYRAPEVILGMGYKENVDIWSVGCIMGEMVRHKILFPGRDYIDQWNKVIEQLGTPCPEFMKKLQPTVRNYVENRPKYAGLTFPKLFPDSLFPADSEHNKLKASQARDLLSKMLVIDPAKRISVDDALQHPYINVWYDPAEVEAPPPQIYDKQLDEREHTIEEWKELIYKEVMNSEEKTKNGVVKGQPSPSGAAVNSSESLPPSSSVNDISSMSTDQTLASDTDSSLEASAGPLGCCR

[27] = molecular target: Serine/threonine-protein kinase MRCK gamma (Homo sapiens) (UniProt Q6DT37); conditions: Compound concentration 1000.0 nM
[28] = molecular target: Receptor tyrosine-protein kinase erbB-2 (Homo sapiens) (UniProt P04626); conditions: Compound concentration 1000.0 nM
[29] = molecular target: MAO-A (amine oxidase [flavin-containing] A) (Rattus norvegicus, UniProt P21396); test: MAO-A Eurofins-Cerep binding assay; parameters: incubation time 60 min, incubation temperature 37°C, ligand concentration 10 nM; conditions: rat cerebral cortex, probe [3H]Ro 41-1049 (10 nM), compound concentration 10 uM, read-out: % Inhibition of Control Specific Binding (Mean n=2)
[30] = test system: Mast/stem cell growth factor receptor Kit (Homo sapiens), P10721 [D816V]; conditions: Compound concentration 1000.0 nM
Chain of Mast/stem cell growth factor receptor Kit (Homo sapiens), P10721 [D816V] (P10721 whole entry D816V): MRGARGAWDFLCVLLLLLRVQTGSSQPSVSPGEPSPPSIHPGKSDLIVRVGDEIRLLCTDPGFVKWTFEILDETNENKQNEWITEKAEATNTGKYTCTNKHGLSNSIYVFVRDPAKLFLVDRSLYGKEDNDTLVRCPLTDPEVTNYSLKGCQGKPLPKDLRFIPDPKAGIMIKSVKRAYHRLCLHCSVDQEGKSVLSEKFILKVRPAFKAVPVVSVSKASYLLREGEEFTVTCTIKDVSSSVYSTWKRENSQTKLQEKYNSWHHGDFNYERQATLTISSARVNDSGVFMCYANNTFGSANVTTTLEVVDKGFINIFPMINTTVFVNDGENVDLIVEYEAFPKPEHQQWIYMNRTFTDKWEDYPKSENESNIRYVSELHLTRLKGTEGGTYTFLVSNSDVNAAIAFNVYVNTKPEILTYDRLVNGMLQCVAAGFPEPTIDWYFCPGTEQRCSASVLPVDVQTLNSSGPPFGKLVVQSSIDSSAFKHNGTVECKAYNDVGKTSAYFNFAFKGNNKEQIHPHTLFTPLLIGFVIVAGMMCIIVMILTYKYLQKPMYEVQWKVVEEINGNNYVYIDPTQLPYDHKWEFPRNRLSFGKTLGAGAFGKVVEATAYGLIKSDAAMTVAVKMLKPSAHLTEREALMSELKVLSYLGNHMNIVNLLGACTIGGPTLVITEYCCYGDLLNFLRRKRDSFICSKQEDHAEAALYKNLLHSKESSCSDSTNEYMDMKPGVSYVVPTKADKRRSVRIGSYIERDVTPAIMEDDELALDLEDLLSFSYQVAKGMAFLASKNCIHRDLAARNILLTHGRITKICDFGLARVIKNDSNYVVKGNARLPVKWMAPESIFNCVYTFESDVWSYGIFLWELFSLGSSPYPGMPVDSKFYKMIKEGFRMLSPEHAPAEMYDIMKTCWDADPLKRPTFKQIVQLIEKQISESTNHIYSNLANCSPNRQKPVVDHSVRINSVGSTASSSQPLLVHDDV

Chain of Epithelial discoidin domain-containing receptor 1 (Homo sapiens) (Q08345 whole entry, the tested form may be a part): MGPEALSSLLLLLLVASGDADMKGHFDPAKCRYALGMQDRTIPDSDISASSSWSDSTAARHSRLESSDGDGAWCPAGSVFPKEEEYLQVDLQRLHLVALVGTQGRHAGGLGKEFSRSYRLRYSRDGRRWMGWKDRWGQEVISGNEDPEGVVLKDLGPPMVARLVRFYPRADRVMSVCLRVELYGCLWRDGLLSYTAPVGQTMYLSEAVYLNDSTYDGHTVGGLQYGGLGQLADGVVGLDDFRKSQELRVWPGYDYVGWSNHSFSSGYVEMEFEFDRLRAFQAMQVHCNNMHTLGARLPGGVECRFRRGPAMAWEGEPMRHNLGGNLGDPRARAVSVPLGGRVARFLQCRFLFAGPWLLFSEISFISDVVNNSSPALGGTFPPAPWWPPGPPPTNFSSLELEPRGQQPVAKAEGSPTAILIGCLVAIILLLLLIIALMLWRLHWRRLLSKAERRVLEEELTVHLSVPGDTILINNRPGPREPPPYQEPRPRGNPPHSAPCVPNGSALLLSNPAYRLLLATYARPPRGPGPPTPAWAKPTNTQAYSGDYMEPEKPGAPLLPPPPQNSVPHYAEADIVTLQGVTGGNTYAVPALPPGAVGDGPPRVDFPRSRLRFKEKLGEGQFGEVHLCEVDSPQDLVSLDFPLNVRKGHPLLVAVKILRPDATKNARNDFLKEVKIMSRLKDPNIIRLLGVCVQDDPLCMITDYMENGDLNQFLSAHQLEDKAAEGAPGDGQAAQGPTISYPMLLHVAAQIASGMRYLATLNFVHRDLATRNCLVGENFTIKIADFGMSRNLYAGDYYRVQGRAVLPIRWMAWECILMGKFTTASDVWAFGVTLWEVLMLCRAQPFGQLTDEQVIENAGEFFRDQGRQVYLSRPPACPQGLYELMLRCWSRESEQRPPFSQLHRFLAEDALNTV
Chain of Bcl-2-like protein 1 (Q07817 whole entry): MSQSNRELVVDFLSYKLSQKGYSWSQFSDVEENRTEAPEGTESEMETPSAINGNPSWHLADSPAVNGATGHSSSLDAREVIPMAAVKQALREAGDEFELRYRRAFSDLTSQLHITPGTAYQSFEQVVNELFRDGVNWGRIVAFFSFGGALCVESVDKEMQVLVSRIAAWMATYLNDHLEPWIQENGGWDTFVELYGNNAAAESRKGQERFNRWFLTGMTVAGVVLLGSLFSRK

Structure (SMILES)	IC50 (Bcl-2-like protein 1)	residual activity [1] [%]	residual activity [2] [%]	residual activity [3] [%]	residual activity [4] [%]	residual activity [5] [%]	inhibition [6] [%]	residual activity [7] [%]	residual activity [8] [%]	% Inhibition of Control Specific Binding (Mean n=2) [9] [%]	residual activity [10] [%]	residual activity [11] [%]	% Inhibition of Control Specific Binding (Mean n=2) [12] [%]	residual activity [13] [%]	% Inhibition of Control Specific Binding (Mean n=2) [14] [%]	residual activity [15] [%]	residual activity [16] [%]	residual activity [17] [%]	residual activity [18] [%]	% Inhibition of Control Specific Binding (Mean n=2) [19] [%]	further results
CO[C@H]1CC[C@H](CNc2ccc(S(=O)(=O)NC(=O)c3ccc(N4CCN(CC5=C(c6ccc(Cl)cc6)CC(C)(C)CC5)CC4)cc3Oc3cnc4[nH]ccc4c3)cc2[N+](=O)[O-])CC1 [A-1211212]	0.753 µM (not active)	93	99	97	100	72	4.94	86	100	9.1	57	68	-5	60	-2.2	89	60	100	96	20.6	residual activity [20]: 100%; residual activity [21]: 74%; residual activity [22]: 73%; residual activity [23]: 100%; residual activity [24]: 71%; % Inhibition of Control Specific Binding (Mean n=2) [25]: 32%; residual activity [26]: 77%; residual activity [27]: 75%; residual activity [28]: 54%; inhibition at 60 min, 10 µM [29]: -5.9%; residual activity [30]: 100%
O=C(NS(=O)(=O)c1ccc(NCC2CCOCC2)c([N+](=O)[O-])c1)c1ccc(N2CCN(Cc3ccc(C(F)(F)F)cc3-c3ccc(Cl)cc3)CC2)cc1Oc1cnc2[nH]ccc2c1 [A-1210227]	> 25 µM (not active)	100	100	100	100	70	-2.4	90	91	13.6	81	93	-0.1	100	0.4	100	78	100	100	12.3	residual activity [20]: 94%; residual activity [21]: 83%; residual activity [22]: 92%; residual activity [23]: 100%; residual activity [24]: 86%; % Inhibition of Control Specific Binding (Mean n=2) [25]: 10.2%; residual activity [26]: 82%; residual activity [27]: 100%; residual activity [28]: 100%; inhibition at 60 min, 10 µM [29]: 8.7%; residual activity [30]: 100%
